Laboratory results from patent US9476883B2, “Cellular recognition conjugates and methods of use for the histological analysis of cancer tissue using MALDI-MS imaging” (GEORGIA STATE UNIVERSITY RESEARCH FOUNDATION, priority 2011, dated 2016).
“Also recorded” adds a separate entry of the source.

Experiments:
[1] = system: cells expressing sialyl Lewis X antigen; experiment: MALDI-IMS imaging of a renal cell carcinoma tissue slice incubated with the imaging agent; type: binding; settings: fresh-frozen renal tissue with tumor and normal regions, 7 μm slice, 2 ng/μl in methanol, overnight at 4° C., no matrix
Description: A tissue slice containing renal cell carcinoma was immunostained (mouse monoclonal antibody, GenWay Biotech San Diego, Calif.) that expressed regions coincident with the tumor area (dark stained bottom tip area of FIG. 3; confirmed by pathological analysis).
An adjacent tissue slice (7 μm) was placed on a conductive slide and incubated with the imaging agent of Example 3 in 100% methanol (2 ng/μl) in a humid chamber overnight at 4° C. Slides were washed for 5 minutes in PBS followed by brief water wash to remove any unbound material. The slides are placed in a desiccator for 20 minutes and analyzed directly by MALDI-TOF (no matrix is added) in the reflectron mode using a laser raster width of 200 μm.
The stabilized carbocation is used in this example located and confirm immunological and pathology analysis of this sample that the MALDI indicated region corresponded to the area associated with cancerous tissue.

[2] = system: renal cell carcinoma tissue; experiment: MALDI-IMS of alcohol fixed (UMFIX/Sakura) renal cell carcinoma tissue exposed to the imaging agent; type: binding
Source text: FIG. 4 depicts the MALDI-IMS of a renal cell carcinoma tissue sample exposed to the imaging agent of Example 3. FIG. 5 depicts the same tissue sample stained with Sakura/UMFx alcohol.
These red pixels correlate to the MALDI peaks in the spectra shown in FIG. 1 and the color intensity is related to peak abundance as shown in the expression scale. Peaks were obtained in the absence of any chemical matrix. […] As such, this provides a method for probing tumor tissue microarrays prepared from alcohol or formalin fixed tissues.

## COc1ccc(C(SCCC(=O)NCCCn2cc(COc3cc(C(=O)N(C)Cc4c5ccccc5c(CN(C)Cc5ccccc5B(O)O)c5ccccc45)ccc3C(=O)N(C)Cc3c4ccccc4c(CN(C)Cc4ccccc4B(O)O)c4ccccc34)nn2)(c2ccc(OC)cc2)c2ccc(OC)c(C#CCCC(=O)NCc3ccccc3)c2)cc1 [Example 3, [({[({[({2-[(1-{3-[({3-[5-(Benzylamino)-5-oxopent-1-yn-1-yl]-4-methoxyphenyl}bis(4-methoxyphenyl)methyl)thio]propanamido}prop-3-yl)-1H-1,2,3-triazol-4-yl]methoxy}terephthaloyl)bis(methylazanediyl)]bis(methylene)}bis(anthracene-10,9-diyl))bis(methylene)]bis(methylazanediyl)}bis(methylene))bis(2,1-phenylene)]-diboronic acid]
[1]
  binding of the imaging agent to tissue, detected as stabilized carbocation in MALDI-IMS: bound only to the cells expressing sialyl Lewis X antigen
[2]
  binding of the imaging agent to alcohol fixed tumor tissue: affixed to the cell surface; also recorded: capable of binding to alcohol fixed renal tissues
